The values that follow come from PMC9822072, “Synthesis and Structure–Activity Relationship of 2,6-Disubstituted Thiosemicarbazone Derivatives of Pyridine as Potential Antituberculosis Agents” (Materials, 2023).

As usually defined, the MIC is the smallest concentration in the dilution series that meets the test's criterion for growth inhibition. Usually melting point stands for the temperature, or range, at which the solid turns liquid. A word on the IC50: it is the midpoint of a concentration-inhibition curve.

Series [1] deals with Bacillus subtilis ATCC 6633. Briefly: Antibacterial microdilution broth method. In kind it is cell-based. To be noted: ATCC6633, Mueller–Hinton broth, read-out: MIC B. subtilis ATCC 6633. On the procedure: (§1) The antibacterial and antifungal activities of compounds 4–9 were screened by the microdilution broth method using Mueller–Hinton broth for the growth of bacteria and Mueller–Hinton broth with 2% glucose for the growth of fungi. The antimicrobial assays were carried out following a previous study. The MICs of the aforementioned derivatives were evaluated for the panel of reference microorganisms from the ATCC (American Type Culture Collection), including Gram-positive bacteria (Staphylococcus aureus ATCC 25923, Staphylococcus epidermidis ATCC 12228, Micrococcus luteus ATCC 10240, Bacillus subtilis ATCC 6633, and Bacillus cereus ATCC 10876), Gram-negative bacteria (Escherichia coli ATCC 25922, Proteus mirabilis ATCC 12453, Klebsiella pneumoniae ATCC 13883, and Pseudomonas aeruginosa ATCC 9027), and fungi (Candida albicans ATCC 102231 and Candida parapsilosis ATCC 22019) (LGC Standards, Teddington, Middlesex, UK). Vancomycin (VAN), ciprofloxacin (CIP), and fluconazole (FCZ) were used as standard drugs for comparison. Each experiment was performed in triplicate.
(In broth dilution the organism is exposed to a series of concentrations in liquid medium.)

For series [2], the system named is Staphylococcus aureus ATCC 25923. Briefly: Antibacterial microdilution broth method. It is filed as cell-based. The conditions noted are these: Mueller–Hinton broth; for MIC: Staphylococcus aureus, ATCC25923, read-out: MIC S. aureus ATCC 25923. As to the method: as §1
The subject of series [3] is Staphylococcus epidermidis ATCC 12228. Briefly: Antibacterial microdilution broth method. The conditions noted are these: Mueller–Hinton broth; for MIC: Staphylococcus epidermidis, ATCC12228, read-out: MIC S. epidermidis ATCC 12228. In kind it is cell-based. On the procedure: as §1
Series [4] has as its system Micrococcus luteus ATCC 10240. The series is described as follows: Antibacterial microdilution broth method. In kind it is cell-based. The conditions noted are these: ATCC10240, Mueller–Hinton broth, read-out: MIC M. luteus ATCC 10240. As to the method: as §1
For series [5], the system named is Bacillus cereus ATCC 10876. The series is described as follows: Antibacterial microdilution broth method. In kind it is cell-based. The conditions noted are these: ATCC10876, Mueller–Hinton broth, read-out: MIC B. cereus ATCC 10876. On the procedure: as §1
Series [6] relates to Candida albicans ATCC 102231. The series is described as follows: Antifungal microdilution broth method. It is filed as cell-based. To be noted: ATCC102231, Mueller–Hinton broth with 2% glucose, read-out: MIC C. albicans ATCC 102231. On the procedure: as §1
The subject of series [7] is Candida parapsilosis ATCC 22019. Briefly: Antifungal microdilution broth method. It is filed as cell-based. To be noted: Lodderomyces parapsilosis, ATCC22019; Mueller–Hinton broth with 2% glucose; read-out: MIC C. parapsilosis ATCC 22019. As to the method: as §1
The subject of series [8] is HaCaT cells. The series is described as follows: Cytotoxic activity, sulforhodamine B method. To be noted: for IC50: Homo sapiens, 72 h, read-out: IC50-HaCaT SULF; for cytotoxicity against noncancer cells (in words): MTT and sulforhodamine B methods together.
Series [9] has as its system HaCaT cells. Briefly: Cytotoxic activity, MTT method. In kind it is cell-based. To be noted: Homo sapiens, 72 h, 3 days of incubation.
Series [10] concerns Klebsiella pneumoniae ATCC 13883. The series is described as follows: Antibacterial microdilution broth method. It is filed as cell-based. The conditions noted are these: ATCC13883, Mueller–Hinton broth, read-out: MIC K. pneumoniae ATCC 13883. On the procedure:
as §1

Series [11] deals with Proteus mirabilis ATCC 12453. The series is described as follows: Antibacterial microdilution broth method. It is filed as cell-based. To be noted: ATCC12453, Mueller–Hinton broth, read-out: MIC P. mirabilis ATCC 12453. As to the method: as §1
The subject of series [12] is Escherichia coli ATCC 25922. The series is described as follows: Antibacterial microdilution broth method. It is filed as cell-based. The conditions noted are these: ATCC25922, Mueller–Hinton broth, read-out: MIC E. coli ATCC 25922. On the procedure:
as §1

Series [13] concerns Pseudomonas aeruginosa ATCC 9027. The series is described as follows: Antibacterial microdilution broth method. In kind it is cell-based. The conditions noted are these: ATCC9027, Mueller–Hinton broth, read-out: MIC P. aeruginosa ATCC 9027. On the procedure:
as §1

Series [14] deals with M. tuberculosis H37Rv (standard strain). Briefly: Tuberculostatic activity, twofold serial microdilution with Alamar Blue. It is filed as cell-based, Mycobacterium tuberculosis. The conditions noted are these: 21 days at 37 °C; for MIC: Mycobacterium tuberculosis, H37RV, 504 h.
The test system of a further series is Gram-positive bacteria. Briefly: Antibacterial microdilution broth method, summary in text. The conditions noted are these: read-out: MIC Gram-positive bacteria. In kind it is cell-based. On the procedure:
as §1

Each structure is given as a SMILES string. Converted amounts (≈) assume the structure as drawn.

For `O=C(O)c1cn(C2CC2)c2cc(N3CCNCC3)c(F)cc2c1=O` [CIP, ciprofloxacin, reference compound], the MIC in series [1] amounted to 0.03 µg/mL (≈ 0.0905 µM); in [2] it was 0.49 µg/mL (≈ 1.48 µM); in series [3] it was 0.49 µg/mL (≈ 1.48 µM); in series [4], 0.98 µg/mL (≈ 2.96 µM); in series [5], 0.12 µg/mL (≈ 0.362 µM).
As to `NC(=NNC(=S)N1CCOCC1)c1cccc(N2CCCC2)n1` [Compound 4, N’-(Morpholine-4-Carbonothioyl)-6-(Pyrrolidin-1-Yl)Picolinohydrazonamide], the melting point was 180 to 182 °C. Further, the MIC in series [6] stood at 250 µg/mL (≈ 747 µM). For the same compound, the MIC in series [7] was above 1000 µg/mL. Also, in the series with HaCaT cells [8], the IC50 was above 50 µg/mL and the “cytotoxicity against noncancer cells (in words)” value (“cytotoxicity” for short) is “no cytotoxicity”. Besides, the half-inhibitory concentration (IC50) in the series on HaCaT cells [9] is above 50 µg/mL. In series [1], the MIC turned out to be 7.8 µg/mL (≈ 23.3 µM). Moreover, the minimal inhibitory concentration (MIC) in series [10] was above 1000 µg/mL. Moreover, in [11], the MIC was above 1000 µg/mL. For the same compound, the MIC in [2] worked out at 3.9 µg/mL (≈ 11.7 µM). The MIC in [12] is above 1000 µg/mL. In addition, in [3], the MIC turned out to be 1.95 µg/mL (≈ 5.83 µM). The MIC in [13] was above 1000 µg/mL. The MIC in series [4] came to 7.8 µg/mL (≈ 23.3 µM). Moreover, the MIC in [5] was 7.8 µg/mL (≈ 23.3 µM). Besides, inhibition of growth in series [14] (MIC) required 16 µg/mL (≈ 47.8 µM).
`NC(=NNC(=S)N1CCCC1)c1cccc(N2CCCC2)n1` [Compound 5, 6-(Pyrrolidin-1-Yl)-N’-(Pyrrolidine-1-Carbonothioyl)Picolinohydrazonamide] came in with a melting point of 200 to 201 °C. The MIC in series [6] worked out at 250 µg/mL (≈ 785 µM). Moreover, in [7], the MIC was found to be 1000 µg/mL (≈ 3140 µM). Besides, in the series on HaCaT cells [8], the IC50 was above 50 µg/mL and the “cytotoxicity” value was “no cytotoxicity”. The minimum inhibitory concentration (MIC) in the series on Gram-positive bacteria came to 0.49 µg/mL (≈ 1.54 µM). For the same compound, in the series on HaCaT cells [9], the IC50 is above 50 µg/mL. Further, the MIC in series [1] is 0.49 µg/mL (≈ 1.54 µM). Besides, the MIC in series [10] was above 1000 µg/mL. Besides, the MIC in [11] is above 1000 µg/mL. Besides, the minimum inhibitory concentration (MIC) in [2] was found to be 0.49 µg/mL (≈ 1.54 µM). The MIC in series [12] is above 1000 µg/mL. Besides, the MIC in [3] worked out at 0.49 µg/mL (≈ 1.54 µM). Also, the MIC in [13] was above 1000 µg/mL. In series [4], the MIC is 0.49 µg/mL (≈ 1.54 µM). Also, the MIC in [5] came to 7.8 µg/mL (≈ 24.5 µM). In [14], the MIC is 2 µg/mL (≈ 6.28 µM).
`NC(=NNC(=S)N1CCOCC1)c1cccc(N2CCCCC2)n1` [Compound 6, N’-(Morpholine-4-Carbonothioyl)-6-(Piperidin-1-Yl)Picolinohydrazonamide]: the melting point lay within 177 to 178 °C. The MIC in series [6] is 1000 µg/mL (≈ 2870 µM). For the same compound, the MIC in series [7] came to 1000 µg/mL (≈ 2870 µM). In the series with HaCaT cells [8], the IC50 was above 50 µg/mL and the “cytotoxicity” value was “inhibited cell metabolic activity while maintaining cell viability”. Besides, the half-inhibitory concentration (IC50) in the series on HaCaT cells [9] was 9.49 µg/mL (≈ 27.2 µM). Also, the MIC in series [1] is 7.8 µg/mL (≈ 22.4 µM). The MIC in [10] was above 1000 µg/mL. Further, the MIC in series [11] was above 1000 µg/mL. Moreover, the MIC in series [2] came to 1.95 µg/mL (≈ 5.6 µM). In series [12], the MIC was above 1000 µg/mL. The MIC in series [3] was 0.98 µg/mL (≈ 2.81 µM). Further, in series [13], the MIC was above 1000 µg/mL. In [4], the MIC is 0.98 µg/mL (≈ 2.81 µM). In addition, the MIC in series [5] turned out to be 7.8 µg/mL (≈ 22.4 µM). Moreover, the lowest concentration to inhibit growth in series [14] (MIC) was 8 µg/mL (≈ 23 µM).
`NC(=NNC(=S)N1CCCC1)c1cccc(N2CCCCC2)n1` [Compound 7, 6-(Piperidin-1-Yl)-N’-(Pyrrolidine-1-Carbonothioyl)Picolinohydrazonamide] gave a melting point of 166 to 168 °C. Moreover, the MIC in [6] is 15.6 µg/mL (≈ 46.9 µM). The MIC in series [7] amounted to 7.8 µg/mL (≈ 23.5 µM). In the series on HaCaT cells [8], the IC50 was above 50 µg/mL and the “cytotoxicity” value was “no cytotoxicity”. Besides, the minimal inhibitory concentration (MIC) in the series on Gram-positive bacteria worked out at 0.49 µg/mL (≈ 1.47 µM). The compound also showed an IC50 in the series on HaCaT cells [9] above 50 µg/mL. For the same compound, the MIC in series [1] came to 1.95 µg/mL (≈ 5.87 µM). In addition, the MIC in [10] is above 1000 µg/mL. Moreover, the MIC in series [11] was above 1000 µg/mL. In addition, in series [2], the “MIC S. aureus ATCC 25923” value was determined as 0.49 µg/mL (≈ 1.47 µM) and the MIC was 0.49 µg/mL (≈ 1.47 µM). In [12], the MIC is above 1000 µg/mL. Besides, in [3], the “MIC S. epidermidis ATCC 12228” value is 0.49 µg/mL (≈ 1.47 µM) and the minimal inhibitory concentration (MIC) came out at 0.49 µg/mL (≈ 1.47 µM). In addition, in [13], the MIC was above 1000 µg/mL. In [4], the MIC was 1.95 µg/mL (≈ 5.87 µM). Further, the MIC in [5] amounted to 1.95 µg/mL (≈ 5.87 µM). Besides, in series [14], the “MIC H37Rv” value worked out at 2 µg/mL (≈ 6.02 µM) and the minimal inhibitory concentration (MIC) was determined as 2 µg/mL (≈ 6.02 µM).
